Reference: patent publication US9949991B2, “Methods of treating aquaporin-mediated conditions” (Aeromics, Inc., priority 2013, dated 2018)
In brackets after ≈: the same amount, converted by molar mass. Like-named read-outs stand apart in the source and are kept apart here.

Experiments:
[1] = Bioconversion in mouse plasma in vitro; format: in vitro ADME
[2] = tested on: mouse water toxicity model (cerebral edema); assay: Mouse water toxicity model, brain volume by MRI
Protocol: The first time point at 5.67 min coincides with the scan slice at the middle of the brain during the first post-injection scan. Other time points are placed in a similar manner. The data is fitted to a single exponential equation: V/V0=Vi+dVmax(1−e^(−kt)); • where V/V0=relative brain volume, Vi=initial relative brain volume, dVmax=maximum change in relative brain volume, k=first order rate constant (min^−1), and t=time in minutes.
Mouse Water Toxicity Model—Brain Volume by Magnetic Resonance Imaging (MRI): MRI is used to measure changes in brain volume in response to water shock, using the water toxicity model. As described for the survival and brain water content studies above, mice are injected, IP, with a water bolus alone or water bolus and test compound at 0.76 mg/kg, and changes in brain volume as detected by MRI are monitored. […] High resolution T2-weighted sagittal scans (resolution=0.1 mm×0.1 mm×0.7 mm) of the mouse head are obtained prior to water injection, 5.67 min post water injection, and then every 5.2 minutes until the animal expires from the water loading. […] The cross sectional area of the brain in each imaging slice is measured by manual region-of-interest selection using ImageJ. Brain volumes are then calculated for each scan by summing the individual cross sectional brain areas and multiplying by the slice thickness (0.7 mm).

AQP4 = assay: Aquaporin-Mediated Cell Volume Change Assay, CHO cells expressing AQP4 (AQP4b); format: cell-based; details: 10 μM, stable CHO cell line, FIG. 2
Protocol: (§1) Structure activity relationships (SARs) are determined by assaying analogues of selected hits to guide chemistry for the preparation of new molecules to be tested for improved potency. For this iterative process we use a quantitative kinetic assay—the Aquaporin-Mediated Cell Volume Change Assa—in a 96-well multiplate reader. It detects changes in light scattering by a monolayer of CHO cells expressing the desired AQP as they shrink when exposed to hypertonic solution (300 mOsm→530 mOsm). FIG. 1 depicts the aquaporin-mediated cell volume change assay with AQP4 expressing cells (FIG. 1A) and AQP2 expressing cells (FIG. 1B). The cells expressing aquaporins shrink more rapidly than control cells, due to enhanced water flow, which shrinkage can be inhibited by a compound that inhibits the aquaporin.
(§2) In FIG. 1, aquaporin-expressing cells are shown in the presence of DMSO (triangles) or in the presence of the test compound (here, Compound 3) at 10 μM (squares), along with CHO-CD81 expressing control cells in the presence of DMSO (diamonds). Each curve represents an average of 16 wells in the 96-well plate.
(§3) In FIG. 1A, when the AQP4b cells treated with DMSO are exposed to hypertonic shock, the cells show rapid shrinking, giving a rise in light scattering (increasing relative change in absorbance, Abs/Abs0) followed by a decay as cells detach from the plate. […]

AQP2 = molecular target: T1, AQP2 (Homo sapiens, UniProt P41181); assay: Aquaporin-Mediated Cell Volume Change Assay, CHO cells expressing AQP2; format: cell-based; details: 10 μM, stable CHO cell line, FIG. 2
T1 construct: expressed in transfected cells
T1 sequence (P41181 1-271): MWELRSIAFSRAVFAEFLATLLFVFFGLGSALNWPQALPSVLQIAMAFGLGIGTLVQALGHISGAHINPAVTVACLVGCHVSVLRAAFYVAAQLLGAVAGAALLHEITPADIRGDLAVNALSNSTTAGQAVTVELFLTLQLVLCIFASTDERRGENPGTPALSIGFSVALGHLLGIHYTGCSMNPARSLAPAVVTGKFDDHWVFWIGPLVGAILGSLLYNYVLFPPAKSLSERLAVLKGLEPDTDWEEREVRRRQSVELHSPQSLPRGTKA
Protocol: as §1, §2, §3

AQP1 = molecular target: T2, AQP1 (Homo sapiens, UniProt P29972); assay: Aquaporin-Mediated Cell Volume Change Assay, CHO cells expressing AQP1 (specificity); format: cell-based; details: 10 μM, stable CHO cell line, FIG. 2
T2 construct: expressed in transfected cells
T2 sequence (P29972 1-269): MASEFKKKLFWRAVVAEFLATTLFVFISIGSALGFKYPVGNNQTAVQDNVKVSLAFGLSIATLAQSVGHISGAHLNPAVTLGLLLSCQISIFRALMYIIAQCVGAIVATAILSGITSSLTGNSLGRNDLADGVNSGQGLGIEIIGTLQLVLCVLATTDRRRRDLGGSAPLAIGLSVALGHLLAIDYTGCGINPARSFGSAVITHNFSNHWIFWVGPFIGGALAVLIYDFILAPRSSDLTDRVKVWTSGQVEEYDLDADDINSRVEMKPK
Protocol: as §1
(§4) The specificity of the compounds is tested against the most closely related of the 13 known aquaporins: AQP1, AQP2, AQP5 and both splice variants of AQP4 (A and B). A stable CHO cell line is created for each of the above aquaporins and the inhibition of water permeability using the Aquaporin-Mediated Cell Volume Change Assay with 10 μM Compound 3 is tested.

AQP5 = molecular target: T3, AQP5 (Homo sapiens, UniProt P55064); assay: Aquaporin-Mediated Cell Volume Change Assay, CHO cells expressing AQP5 (specificity); format: cell-based; details: 10 μM, stable CHO cell line, FIG. 2
T3 construct: expressed in transfected cells
Protocol: as §1, §4

purified AQP4b = purified AQP4b (Homo sapiens, UniProt P55087); assay: Hummel-Dryer style binding assay with [3H]-Compound 4 and purified AQP4b; details: for Kd: detergent buffer, 1 μM [3H]-Compound 4, read-out: relative affinity
Protocol: To support the mechanism of action by which phenylbenzamides directly block AQP4, we perform in vitro binding studies using purified AQP4b and Compound 4 radiolabeled with ^3H. Using a Hummel-Dryer style assay, a gel filtration column is equilibratrated with buffer containing detergent, to maintain solubility of AQP4b, and 1 μM [^3H]-Compound 4. AQP4b is diluted to 250 μM in this column buffer and incubated at RT for 30 min. The sample is then applied to the column, fractions collected and the presence of [^3H]-Compound 4 detected by liquid scintillation counting. […] The rise in [^3H]-Compound 4 from a baseline value of 1 μM represents binding to each of these proteins.

[3] = tested on: mouse middle cerebral artery occlusion (MCAo) model; assay: Mouse MCAo stroke model, survival; format: in vivo; details: 2 mg/kg i.p. loading dose plus 1 mg/ml at 8 μl/h pump, versus saline, P<0.05
Protocol: To mimic this injury in mice, an intraluminal monofilament model of middle cerebral artery occlusion (MCAo) is used. Occlusion is achieved by inserting a surgical filament into the external carotid artery (ECA) and threading it forward into the internal carotid artery (ICA) until the tip blocks the origin of the MCA. […] This technique is used to study a temporary occlusion in which the MCA is blocked for one hour.
Survival—Mice are treated with Compound 5 using a 2 mg/kg i.p. loading dose and 1 mg/ml at 8 μl/h maintenance dose (delivered by an i.p. osmotic pump) of Compound 5, or given saline (controls; n=17) using an identical approach.

[4] = tested on: mouse middle cerebral artery occlusion (MCAo) model; assay: Mouse MCAo stroke model, cerebral edema by MRI and neurological outcome
Protocol: To mimic this injury in mice, an intraluminal monofilament model of middle cerebral artery occlusion (MCAo) is used. Occlusion is achieved by inserting a surgical filament into the external carotid artery (ECA) and threading it forward into the internal carotid artery (ICA) until the tip blocks the origin of the MCA. […] This technique is used to study a temporary occlusion in which the MCA is blocked for one hour. The filament is then removed allowing reperfusion to occur for 24 hours before the animal's brain was imaged using T2-weighted scans in a 9.4 T Bruker MRI scanner at the Case Center for Imaging Research (FIG. 10).
Cerebral Edema—Mice are given saline or treated with Compound 5 by multi-dosing at 5 mg/kg i.p. every three hours (n=8 per treatment). […] Ipsilateral and contralateral hemispheric volume is measured from the T2-weighted MR images of mice 24 hours post-icus. Relative change in hemispheric volume is calculated as a percent of the difference between ipsilateral brain volume (Vi) and contralateral brain volume (Vc) relative to the contralateral brain volume (Percent Change in Hemispheric Brain Volume=((Vi−Vc)/Vc)×100%.
Neurological Outcome—In the same experiment as above, animals are scored for neurological outcome on a simple 5 point scale described in Manley, G. T. et al., Aquaporin-4 Deletion in Mice Reduces Brain Edema After Acute Water Intoxication and Ischemic Stroke, Nature Medicine, 6, 159-163 (2000).

AQP = AQP inhibition cell-based assay (Table 1)
Protocol: as §1

purified AQP4b, sequence (P55087 23-323): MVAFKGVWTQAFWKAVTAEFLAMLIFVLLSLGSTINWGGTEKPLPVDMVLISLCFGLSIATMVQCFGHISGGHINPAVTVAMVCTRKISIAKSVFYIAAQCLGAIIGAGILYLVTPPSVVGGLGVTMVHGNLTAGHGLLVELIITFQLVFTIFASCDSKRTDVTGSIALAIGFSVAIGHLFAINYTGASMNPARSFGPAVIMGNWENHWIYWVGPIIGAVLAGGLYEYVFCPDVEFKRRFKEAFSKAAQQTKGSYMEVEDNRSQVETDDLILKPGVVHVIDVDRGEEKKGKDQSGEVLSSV
T3 sequence (P55064 whole entry): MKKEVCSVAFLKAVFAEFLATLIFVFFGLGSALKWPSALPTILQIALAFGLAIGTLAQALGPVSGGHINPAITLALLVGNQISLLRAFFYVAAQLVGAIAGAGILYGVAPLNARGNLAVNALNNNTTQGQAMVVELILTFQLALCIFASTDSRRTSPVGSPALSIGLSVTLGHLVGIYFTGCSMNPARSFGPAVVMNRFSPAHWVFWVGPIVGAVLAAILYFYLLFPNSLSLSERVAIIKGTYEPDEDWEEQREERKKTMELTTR

O=C(Nc1cc(C(F)(F)F)cc(C(F)(F)F)c1)c1cc(Cl)ccc1OP(=O)(O)O
bioconversion to Compound 1 (in words) ([1]; added to mouse plasma in vitro): rapid bioconversion | time sufficient to render the salt undetectable ([1]; mouse plasma in vitro, 20° C.): Less than 5 minutes | level of the salt in plasma samples of mice injected IP (in words) (IP injection): undetectable | bioavailability and conversion to Compound 1 (in words) (IP injection, Compound 1 detected in plasma): good bioavailability and near-complete conversion

O=C(Nc1cc(C(F)(F)F)cc(C(F)(F)F)c1)c1cc(Cl)ccc1O [Compound 1, N-(3,5-Bis-trifluoromethyl-phenyl)-5-chloro-2-hydroxy-benzamide]
expected efficacious plasma concentration (taken from the mouse water toxicity model): 20 ng/mL | solubility (Solubility in water): 3.8 µg/mL (≈ 9.9 µM) | extent of CE during the period of observation (in words) ([2]; 0.76 mg/kg): reduced

O=C(Nc1cc(Cl)cc(Cl)c1)c1cc(Cl)ccc1O [Compound 3]
inhibition of water permeability (in words) (AQP4): inhibits | inhibition of water permeability (in words) (AQP2): inhibits | inhibition of water permeability (in words) (AQP1): poorly inhibits | inhibition of water permeability (in words) (AQP5): poorly inhibits

O=C(Nc1cc(C(F)(F)F)cc(C(F)(F)F)c1)c1cc(C(F)(F)F)ccc1O [Compound 4, N-[3,5-bis(trifluoromethyl)phenyl]-2-hydroxy-5-(trifluoromethyl)benzamide]
Kd (purified AQP4b; monomeric AQP4b): < 1 µM | binding to solubilized AQP4b (in words) (purified AQP4b; solubilized AQP4b): relatively weak binding | Kd (purified AQP4b; tetrameric AQP4b): ~100 µM

O=C(Nc1cc(C(F)(F)F)cc(C(F)(F)F)c1)c1cc(Cl)ccc1OP(=O)(O)O [Compound 5]
improvement in overall survival at 24 h [3]: 29.4% | solubility (Solubility in water): 1000 µg/mL (≈ 2160 µM) | neurological progression (in words) ([4]; 5 mg/kg i.p. every three hours): did not progress into a state of severe paralysis or death | relative change in ipsilateral brain volume ([4]; 5 mg/kg i.p. every three hours, 24 hours after MCAo, ±SEM, control 13.4%±1.9%): 4.2±1.7% | reduction in brain swelling after MCAo ([4]; 5 mg/kg i.p. every three hours, versus control): 3.2 fold | average neurological score ([4]; 5 point scale, P=0.025, control 2.77±0.66): 0.88±0.31

O=C(Nc1ccccc1)c1ccccc1 [Phenylbenzamide, reference compound]
AQP Inhibition Cell-Based Assay (AQP): 4.5% | reduction in the rate of CE (in words) ([2]; 0.39 mg/kg): fails to show reduction
